“Also recorded” adds a separate entry of the source.
Legend:
CD4 = CD4 (Homo sapiens, UniProt P01730); settings: ligation of CD4; literature; cited from earlier work
JAK3 [1] = experiment: JAK3 expression and tyrosine phosphorylation (immunoprecipitation/Western blot) in TCR/CD3-stimulated CD4+ T cells with or without prior CD4 ligation; format: cell-based, human; settings: for reversal of gp120 or anti-CD4 induced inhibition of JAK3 expression and activation: 20 U/ml cytokine, FIG. 4
Protocol: In this experiment, the present inventors determined the activation status of JAK3 in CD4^+ T cells which were activated through the TCR subsequent to CD4 ligation.
Briefly, the purified CD4^+ T cells were incubated with or without gp120 and anti-gp120 antibody or anti-CD4 for 1 hour at 37° C. 3×10^6 cells per well were incubated at 37° C. in an anti-CD3 mAb coated (anti-CD3, OKT3, 50 μg/ml, ATCC) 12-well plate. Cells were harvested after various times and lysed in Tris-buffered saline (TBS) containing 1% NP-40, phosphatase inhibitors and protease inhibitors. After micro centrifugation, the post-nuclear lysates were used for immunoprecipitation with anti-JAK3 polyclonal antibody (anti-JAK3, 10 μl, Santa Cruz Biotechnology). The antibody-protein complex was pelleted using Sepharose-conjugated Protein A (Sigma) boiled in sample buffer (0.4% SDS, 3% glycerol and 1% β-mercaptoethanol (2-ME)) and the proteins were separated by 7.5% SDS-PAGE. The proteins were transferred to nitrocellulose membrane and immunoblotted with antiphosphotyrosine mAb (anti-P-Tyr, Ab-2, Oncogene Science) Positive protein bands were detected with horseradish peroxidase (HRP)-conjugated goat anti-mouse IgG (Jackson ImmunoResearch) and SuperSignal Substrate (SSS, Pierce). Membranes were stripped with 62.5 mM Tris-HCl, pH 6.7, containing 10 mM 2-ME, and 2% SDS, immunoblotted with anti-JAK3, and developed with HRP-conjugated protein A and SSS.
In some experiments, 1.5×10^6 cell equivalents of post-nuclear lysate were boiled with sample buffer and separated by 7.5% SDS-PAGE. Nitrocellulose membrane was immunoblotted with (anti-JAK3 and then stripped and immunoblotted with anti-actin mAb (anti-actin, Sigma), as described above. Optical density (O.D.) of positive bands was measured with the Stratagene Eagle Eye II.

JAK1 = JAK1 activation in T cells stimulated through TCR/CD3 with or without prior CD4 ligation; format: cell-based, human; settings: CD4 ligation before TCR/CD3 stimulation; FIG. 5
Text: Another Janus family kinase, JAK1, associates with the β chain of IL-2R and with the α chains of IL-4R and IL-7R, and is autophosphorylated upon activation (Johnston et al. (1994) Nature, 370:151; and Russell et al. (1994) Science, 270:797).

[2] = system: purified human CD4+ T cells; experiment: Anti-TCR induced proliferation ([3H]-thymidine) of CD4-ligated purified CD4+ T cells, rescue by cytokines; format: cell-based; settings: for reversal of inhibition of proliferation at higher cytokine concentrations: up to 80 U/ml, data not shown; for anti-TCR induced proliferative response of CD4-ligated T cells: 20 U/ml cytokine, gp120 or anti-CD4 ligation before plate-bound anti-TCR, 3 days, FIG. 1
Protocol: Heparinized venous blood from healthy adult human donors was separated on a Ficoll-Paque (Pharmacia Biotech) gradient to obtain lymphocytes. CD4^+ T cells were isolated by incubation with anti-CD8 mAb (OKT8, 20 Ag/ml, ATCC), followed by negative selection on goat anti-mouse IgG coated Immulan beads (Biotecx Laboratories).
Specifically, the purified CD4^+ T cells in balanced salts solution were incubated with or without gp120 (rgp120SF2, 10 μg/ml) and crosslinked with anti-gp120 antibody (1:250 dilution) or anti-CD4 mAb (anti-CD4, Leu-3α, 20 μg/ml) for 1 hr at 37° C.
Proliferation in response to plate-bound anti-TCR was determined as follows. Cells were washed, resuspended in RPMI-1640 culture media (GIBCO) supplemented with 10% fetal bovine serum (FBS, Gemini BioProducts) and 1×10^5 cells were added to triplicate wells of an anti-T cell receptor monoclonal antibody-coated (anti-TCR, BMA-031, 50 μg/ml) 96-well plate (Becton Dickinson). […] Culture plates were incubated for 3 days at 37° C. with 1 μCi/Well [^3H]-thymidine (NEN) present during the final 5 hours of culture. The cells were harvested and processed to determine ^3H-thymidine incorporation.

JAK3 [3] = experiment: JAK3 expression (Western blot) in mock- or HIV-1 NL4-3-infected CD4+ T cell PHA blasts; format: cell-based, human; settings: 20 U/ml, 48 hours
Protocol: In this experiment, purified human CD4^+ T cells isolated as described above and activated with PHA for 3 days were infected for 4 days with a laboratory cloned strain of HIV-1, NL4-3. […] Cells were harvested and lysed with TBS/1% NP40 and analyzed on 7.5% SDS PAGE. Western blots using anti-JAK3 or anti-actin were prepared as described in Example 3.

IL-2R (α-chain, CD25) = experiment: Activation-induced IL-2R (CD25) expression on CD4 primed T cells by flow cytometry; format: cell-based, human; settings: 20 U/ml cytokine; 24 hours; FIGS. 2A, 2B
Protocol: Expression of high affinity IL-2R (CD25) was also analyzed in CD4 primed T cells. To determine the expression of IL-2R (α-chain, CD25), the culture plates were set up as described in Example 1 and incubated at 37° C. for 24 hours. 2×10^5 cells were stained with FITC-conjugated anti-CD25 mAb (Pharmingen) and analyzed by flow cytometry (Coulter XL).

[4] = molecular target: T1, protein tyrosine phosphatase (PTP), particularly PTP1B (Homo sapiens, UniProt P18031); settings: Pathak & Yi 2001; cited from earlier work
T1 sequence (P18031 1-435): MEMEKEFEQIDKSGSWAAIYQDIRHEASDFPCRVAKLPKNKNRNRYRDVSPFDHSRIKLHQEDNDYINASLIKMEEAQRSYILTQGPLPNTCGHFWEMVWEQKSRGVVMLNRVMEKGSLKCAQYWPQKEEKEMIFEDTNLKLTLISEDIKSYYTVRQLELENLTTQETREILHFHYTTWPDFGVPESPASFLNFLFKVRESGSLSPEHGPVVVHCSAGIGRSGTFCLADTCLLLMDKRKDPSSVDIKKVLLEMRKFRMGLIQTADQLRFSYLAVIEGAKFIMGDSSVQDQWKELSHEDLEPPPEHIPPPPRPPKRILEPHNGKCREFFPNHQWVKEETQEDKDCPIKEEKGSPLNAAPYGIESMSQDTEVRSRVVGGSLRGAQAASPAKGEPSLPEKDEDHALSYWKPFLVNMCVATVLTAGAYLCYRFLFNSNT

HIV-1 LTR = experiment: HIV-1 LTR-luciferase activity in resting CD4+ T cells; format: cell-based; settings: STAT5 expression vector or IL-2 for 1 hour, FIG. 17
Text: Resting CD4^+ T cells were transfected with a construct containing luciferase under the control of HIV-1 LTR or a control luciferase construct (Dual-luciferase© Reporter Assay System, Promega, Madison, Wis.). The cells were also optionally transfected with an expression vector encoding STAT5. […] The luciferase activity of the cellular lysates was subsequently measured.

Question: Which “TCR/CD3-induced IL-2R expression, IL-2 production, and proliferation” value (CD4) does the source give for “gp120: HIV surface glycoprotein, crosslinked with anti-gp120 antibody” here?
Answer: Its value is “inhibit”.

Question: And the “extent of inhibition of JAK3 expression and activation” value (JAK3 [1]; CD4 ligation before anti-CD3 stimulation, FIG. 3A)?
Answer: The value was “incomplete”.

Question: What about the “TCR/CD3-induced expression and phosphorylation of JAK3” value (JAK3 [1]; CD4 ligation before anti-CD3 stimulation, FIGS. 3A, 3B) of the same molecule?
Answer: Its value is “inhibits”.

Question: What about the “activation status of JAK1” value (JAK1) of the same molecule?
Answer: The value was “did not significantly change”.

Question: With “IL-6: cytokine that binds to receptors on T cells which lack γc” as the molecule, how does the “reversal of inhibition of proliferation at higher cytokine concentrations” value [2] read?
Answer: The value was “did not reverse the inhibition of proliferation”.

Question: Which results are given for “IL-7: cytokine which binds to receptors on T cells having γc; Genzyme”?
Answer: JAK3 expression in anti-CD3 stimulated HIV infected T cells (JAK3 [3]; versus stimulated HIV-infected cells without cytokine): significantly increased; also recorded: increases JAK3 expression; JAK3 expression in anti-CD3 stimulated mock-infected T cells (JAK3 [3]; versus stimulated cells without cytokine): increased JAK3 expression slightly; anti-TCR induced proliferative response of CD4-ligated T cells [2]: restored the proliferative response; activation-induced CD25 expression on CD4 primed T cells (IL-2R (α-chain, CD25)): restored activation-induced CD25 expression; reversal of gp120 or anti-CD4 induced inhibition of JAK3 expression and activation (JAK3 [1]): completely reversed

Question: For O.O.O.O.O.O.O.O.O.O=C([O-])[C@@H]1[O][Sb]2([O-])([O][Sb]34([OH])[O][C@H]([C@H](O)CO)[C@H]([O]3)[C@H](C(=O)[O-])[O]4)[O][C@H]([C@H](O)CO)[C@@H]1[O]2.[Na+].[Na+].[Na+] [pentostam, stibogluconate sodium], which “cellular protein tyrosine phosphatase (PTP) inhibition, particularly PTP1B” value [4] is on record?
Answer: Its value is “inhibit”.

B1: IL-4: cytokine which binds to receptors on T cells having γc; R&D Systems (protein, UniProt P05112 25-153, looked up)
Interleukin-4: HKCDITLQEIIKTLNSLTEQKTLCTELTVTDIFAASKNTTEKETFCRAATVLRQFYSHHEKDTRCLGATAQQFHRHKQLIRFLKRLDRNLWGLAGLNSCPVKEANQSTLENFLERLKTIMREKYSKCSS
Question: For B1, which “anti-TCR induced proliferative response of CD4-ligated T cells” value [2] is on record?
Answer: The value was “restored the proliferative response”.

Question: And the “activation-induced CD25 expression on CD4 primed T cells” value (IL-2R (α-chain, CD25))?
Answer: The value was “restored activation-induced CD25 expression”.

Question: What about the “reversal of gp120 or anti-CD4 induced inhibition of JAK3 expression and activation” value (JAK3 [1]) of the same molecule?
Answer: Its value is “completely reversed”.

B2: STAT5: over-expressed from an expression vector encoding STAT5 (protein, UniProt P42229 1-794, looked up)
Signal transducer and …: MAGWIQAQQLQGDALRQMQVLYGQHFPIEVRHYLAQWIESQPWDAIDLDNPQDRAQATQLLEGLVQELQKKAEHQVGEDGFLLKIKLGHYATQLQKTYDRCPLELVRCIRHILYNEQRLVREANNCSSPAGILVDAMSQKHLQINQTFEELRLVTQDTENELKKLQQTQEYFIIQYQESLRIQAQFAQLAQLSPQERLSRETALQQKQVSLEAWLQREAQTLQQYRVELAEKHQKTLQLLRKQQTIILDDELIQWKRRQQLAGNGGPPEGSLDVLQSWCEKLAEIIWQNRQQIRRAEHLCQQLPIPGPVEEMLAEVNATITDIISALVTSTFIIEKQPPQVLKTQTKFAATVRLLVGGKLNVHMNPPQVKATIISEQQAKSLLKNENTRNECSGEILNNCCVMEYHQATGTLSAHFRNMSLKRIKRADRRGAESVTEEKFTVLFESQFSVGSNELVFQVKTLSLPVVVIVHGSQDHNATATVLWDNAFAEPGRVPFAVPDKVLWPQLCEALNMKFKAEVQSNRGLTKENLVFLAQKLFNNSSSHLEDYSGLSVSWSQFNRENLPGWNYTFWQWFDGVMEVLKKHHKPHWNDGAILGFVNKQQAHDLLINKPDGTFLLRFSDSEIGGITIAWKFDSPERNLWNLKPFTTRDFSIRSLADRLGDLSYLIYVFPDRPKDEVFSKYYTPVLAKAVDGYVKPQIKQVVPEFVNASADAGGSSATYMDQAPSPAVCPQAPYNMYPQNPDHVLDQDGEFDLDETMDVARHVEELLRRPMDSLDSRLSPPAGLFTSARGSLS
Question: For B2, which “activity from the HIV-1 LTR (luciferase activity)” value (HIV-1 LTR) is on record?
Answer: The value was “increased activity”.

B3: IL-12: cytokine that binds to receptors on T cells which lack γc (protein, UniProt P29459 23-219; P29460 23-328, looked up)
Interleukin-12 subunit alpha: RNLPVATPDPGMFPCLHHSQNLLRAVSNMLQKARQTLEFYPCTSEEIDHEDITKDKTSTVEACLPLELTKNESCLNSRETSFITNGSCLASRKTSFMMALCLSSIYEDLKMYQVEFKTMNAKLLMDPKRQIFLDQNMLAVIDELMQALNFNSETVPQKSSLEEPDFYKTKIKLCILLHAFRIRAVTIDRVMSYLNAS
Interleukin-12 subunit beta: IWELKKDVYVVELDWYPDAPGEMVVLTCDTPEEDGITWTLDQSSEVLGSGKTLTIQVKEFGDAGQYTCHKGGEVLSHSLLLLHKKEDGIWSTDILKDQKEPKNKTFLRCEAKNYSGRFTCWWLTTISTDLTFSVKSSRGSSDPQGVTCGAATLSAERVRGDNKEYEYSVECQEDSACPAAEESLPIEVMVDAVHKLKYENYTSSFFIRDIIKPDPPKNLQLKPLKNSRQVEVSWEYPDTWSTPHSYFSLTFCVQVQGKSKREKKDRVFTDKTSATVICRKNASISVRAQDRYYSSSWSEWASVPCS
Question: With B3 as the molecule, how does the “reversal of inhibition of proliferation at higher cytokine concentrations” value [2] read?
Answer: The value was “did not reverse the inhibition of proliferation”.

Source: patent US20050124645A1, “Methods and compositions for increasing CD4lymphocyte immune responsiveness” (priority 1998, published 2005)
